Test results from patent publication US20210069286A1, “COMPOSITIONS AND METHODS FOR TREATING OR PREVENTING HYPERGLYCEMIA, INSULIN RESISTANCE, AND […] DAMAGE” (9 Meters Biopharma, Inc., priority 2018, published 2021).
No end group written: not given here.

Experiments:
[1] = tested on: tight junction; test: activity as tight junction regulators; settings: for activity as tight junction regulators: fragment alone
Excerpt: See US 2016/0022760, which is hereby incorporated by reference in its entirety. […] It is believed that an aminopeptidase located within the brush borders of the lumen surface may create larazotide-derived fragments, including fragments missing N-terminal glycine residues.

[2] = tested on: intestinal disease symptoms; settings: clinical trials, cited from earlier work

Substance | activity as tight junction regulator ([1]; fragments GVLVQPG and VLVQPG mixed with full length larazotide) | activity at reducing intestinal disease symptoms ([2]; higher doses (e.g., 1 mg and 2 mg doses)) | benefit at reducing intestinal disease symptoms ([2]; lower doses (e.g., 0.5 mg dose)) | activity as tight junction regulators [1]
GGVLVQPG [Larazotide] | completely abolished | attenuation of activity, or no activity at all | benefit | –
GVLVQPG [larazotide-derived fragment missing N-terminal glycine residue] | – | – | – | largely inactive
VLVQPG [larazotide-derived fragment missing N-terminal glycine residues] | – | – | – | largely inactive
